These results are taken from US20200172483A1, “HETEROCYCLIC SMALL MOLECULE MODULATORS OF HUMAN STING” (Curadev Pharma Limited, priority 2017, published 2020).

The target of one experiment is T1, WT/R232 STING protein (Homo sapiens, UniProt Q86WV6, H232R).
T1 construct: host or cells: HEK293T
Nature of the experiment: Luciferase reporter assay in HEK293T-hSTING-Luciferase cells (R232). The format is cell-based. As to conditions: 20 hr stimulation, EC50 range. Put shortly:
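Clonal HEK293T cells stably expressing human STING R232 plus an ISRE/ISG54-driven secreted luciferase reporter, stimulated with compounds for 20 hr. Luciferase in supernatant read by luminescence; activity given as fold-induction over baseline.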
(A reporter such as luciferase makes a cellular process visible.)

The target in another experiment is T2, hSTING (H232) (Homo sapiens, UniProt Q86WV6).
T2 construct: host or cells: HEK293T
Nature of the experiment: Luciferase reporter assay in HEK293T-hSTING-Luciferase cells (H232/REF polymorph). Particulars: EC50 range. The experiment is classed as cell-based. In a few lines: (§1)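 Clonal HEK293T lines stably expressing the hSTING variant (H232 or HAQ) plus an ISRE/ISG54-driven secreted luciferase reporter were stimulated with compounds for 20 hr. Supernatant luciferase measured by luminescence (Quanti-Luc).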

For a further experiment, the target named is T3, hSTING (HAQ) (Homo sapiens, UniProt Q86WV6, G230A/H232R/R293Q/R71H).
T3 construct: host or cells: HEK293T
Nature of the experiment: Luciferase reporter assay in HEK293T-hSTING-Luciferase cells (HAQ polymorph). The format is cell-based. As to conditions: EC50 range. In a few lines: as §1

In a further experiment the test system is IRF pathway. Put plainly: Reporter gene expression assay for IRF axis in THP1-Dual cells (secreted Lucia luciferase). The experiment is classed as cell-based, human. As to conditions: Homo sapiens, THP1-Dual, 20 h, 20 hr stimulation, QUANTI-Luc, EC50 range, read-out: THP-IRF activity. Put shortly: (§2)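 THP1-Dual cells (THP-1 monocytes with inducible NF-κB-SEAP and IRF-Lucia reporters; 5×10^5 cells) were stimulated with compounds for 20 hr. Secreted SEAP (QUANTI-Blue) and Lucia luciferase (QUANTI-Luc) were then measured in the supernatant. EC50 values are reported as ranges.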

In the next experiment the test system is NF-κB pathway. Nature of the experiment: Reporter gene expression assay for NFκB axis in THP1-Dual cells (secreted SEAP). The experiment is classed as cell-based, human. Particulars: 20 hr stimulation, QUANTI-Blue SEAP, EC50 range, read-out: THP-NFKB activity. Put shortly: as §2

Where two headings read alike, the source gives them in different places.

T2 sequence (Q86WV6 whole entry): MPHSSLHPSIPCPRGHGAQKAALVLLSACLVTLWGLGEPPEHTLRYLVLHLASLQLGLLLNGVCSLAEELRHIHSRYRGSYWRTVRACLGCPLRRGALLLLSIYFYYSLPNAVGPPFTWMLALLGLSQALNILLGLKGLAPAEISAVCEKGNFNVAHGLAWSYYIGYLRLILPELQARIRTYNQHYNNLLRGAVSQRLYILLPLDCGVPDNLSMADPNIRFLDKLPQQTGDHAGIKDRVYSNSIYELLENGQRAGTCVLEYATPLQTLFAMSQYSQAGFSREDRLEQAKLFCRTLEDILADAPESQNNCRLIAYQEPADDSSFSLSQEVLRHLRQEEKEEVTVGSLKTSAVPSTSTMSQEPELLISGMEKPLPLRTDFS
T1 sequence (Q86WV6 whole entry H232R): as the sequence (Q86WV6 whole entry) above, with H232R counted along it
T3 sequence (Q86WV6 whole entry R71H/G230A/H232R/R293Q): as the sequence (Q86WV6 whole entry) above, with R71H, G230A, H232R, R293Q counted along it

For the compound `COc1cccc(F)c1CN1C(=O)C(C)(C)c2ccc(C(=O)NCc3c(F)cc(F)cc3F)cc21` [Example 102, 1-(2-fluoro-6-methoxybenzyl)-3,3-dimethyl-2-oxo-N-(2,4,6-trifluorobenzyl)indoline-6-carboxamide], the EC50 is not above 1 µM on WT/R232 STING protein; not above 1 µM at hSTING (H232); not above 1 µM at hSTING (HAQ); not above 1 µM with IRF pathway; not above 1 µM with NF-κB pathway (Homo sapiens, THP1-Dual, 20 h).
Turning to `Cc1cccc(F)c1CN1C(=O)C(C)(C)c2ccc(C(=O)NCc3c(F)cc(F)cc3F)cc21` [Example 103, 1-(2-fluoro-6-methylbenzyl)-3,3-dimethyl-2-oxo-N-(2,4,6-trifluorobenzyl)indoline-6-carboxamide], the EC50 is not above 1 µM on WT/R232 STING protein; not above 1 µM on hSTING (H232); not above 1 µM on hSTING (HAQ); 1 to 10 µM with IRF pathway; 1 to 10 µM in the experiment with NF-κB pathway (Homo sapiens, THP1-Dual, 20 h).
Regarding `COc1cccc(CN2C(=O)C(C)(C)c3ccc(C(=O)NCc4c(F)cc(F)cc4F)cc32)c1F` [Example 104, 1-(2-fluoro-3-methoxybenzyl)-3,3-dimethyl-2-oxo-N-(2,4,6-trifluorobenzyl)indoline-6-carboxamide], the EC50 was 1 to 10 µM on WT/R232 STING protein; 1 to 10 µM at hSTING (H232); 1 to 10 µM at hSTING (HAQ); more than 10 µM with IRF pathway; more than 10 µM in the experiment on NF-κB pathway (Homo sapiens, THP1-Dual, 20 h).
For `Cc1nn(C)c(CN2C(=O)C(C)(C)c3ccc(C(=O)NCc4c(F)cc(F)cc4F)cc32)c1Br` [Example 106, 1-((4-bromo-1,3-dimethyl-1H-pyrazol-5-yl)methyl)-3,3-dimethyl-2-oxo-N-(2,4,6-trifluorobenzyl)indoline-6-carboxamide], the EC50 at WT/R232 STING protein was not above 1 µM; on hSTING (H232) it was not above 1 µM; on hSTING (HAQ) it was not above 1 µM; in the experiment with IRF pathway, 1 to 10 µM; in the experiment with NF-κB pathway (Homo sapiens, THP1-Dual, 20 h) it was 1 to 10 µM.
Turning to `Cc1cc(CN2C(=O)C(C)(C)c3ccc(C(=O)NCc4cc5ccccc5o4)cc32)n(C)n1` [Example 107, N-(benzofuran-2-ylmethyl)-1-((1,3-dimethyl-1H-pyrazol-5-yl)methyl)-3,3-dimethyl-2-oxoindoline-6-carboxamide], the EC50 at WT/R232 STING protein was not above 1 µM; at hSTING (H232), 1 to 10 µM; at hSTING (HAQ), 1 to 10 µM; in the experiment with IRF pathway, 1 to 10 µM; in the experiment on NF-κB pathway (Homo sapiens, THP1-Dual, 20 h) it was 1 to 10 µM.
Regarding `CC1(C)C(=O)N(Cc2c(F)cccc2Br)c2cc(C(=O)NCc3c(F)cc(F)cc3F)ccc21` [Example 108, 1-(2-bromo-6-fluorobenzyl)-3,3-dimethyl-2-oxo-N-(2,4,6-trifluorobenzyl)indoline-6-carboxamide], the EC50 was not above 1 µM on WT/R232 STING protein; more than 10 µM on hSTING (H232); more than 10 µM at hSTING (HAQ); more than 10 µM in the experiment with IRF pathway; more than 10 µM in the experiment with NF-κB pathway (Homo sapiens, THP1-Dual, 20 h).
Turning to `CC1(C)C(=O)N(Cc2c(F)cccc2F)c2cc(C(=O)NCc3c(F)cc(F)cc3F)ccc21` [Example 109, 1-(2,6-difluorobenzyl)-3,3-dimethyl-2-oxo-N-(2,4,6-trifluorobenzyl)indoline-6-carboxamide], the EC50 at WT/R232 STING protein is not above 1 µM; at hSTING (H232), not above 1 µM; on hSTING (HAQ) it was not above 1 µM; with IRF pathway, 1 to 10 µM; in the experiment on NF-κB pathway (Homo sapiens, THP1-Dual, 20 h), 1 to 10 µM.
As for `CC1(C)C(=O)N(Cc2c(F)cccc2OC(F)F)c2cc(C(=O)NCc3c(F)cc(F)cc3F)ccc21` [Example 111, 1-(2-(difluoromethoxy)-6-fluorobenzyl)-3,3-dimethyl-2-oxo-N-(2,4,6-trifluorobenzyl)indoline-6-carboxamide], the EC50 at WT/R232 STING protein was not above 1 µM; at hSTING (H232) it was not above 1 µM; on hSTING (HAQ), not above 1 µM; in the experiment with IRF pathway, 1 to 10 µM; with NF-κB pathway (Homo sapiens, THP1-Dual, 20 h), 1 to 10 µM.
For the compound `Cc1nn(C)c(CN2C(=O)C(C)(C)c3ccc(C(=O)NCc4cc5ccccc5o4)cc32)c1Br` [Example 112, N-(benzofuran-2-ylmethyl)-1-((4-bromo-1,3-dimethyl-1H-pyrazol-5-yl)methyl)-3,3-dimethyl-2-oxoindoline-6-carboxamide], the EC50 at WT/R232 STING protein is not above 1 µM; on hSTING (H232), not above 1 µM; on hSTING (HAQ), not above 1 µM; with IRF pathway it was 1 to 10 µM; in the experiment with NF-κB pathway (Homo sapiens, THP1-Dual, 20 h), 1 to 10 µM.
For `Cc1nn(C)c(CN2C(=O)C(C)(C)c3ccc(C(=O)NCc4cc5cc(F)c(F)cc5o4)cc32)c1F` [Example 114, N-((5,6-difluorobenzofuran-2-yl)methyl)-1-((4-fluoro-1,3-dimethyl-1H-pyrazol-5-yl)methyl)-3,3-dimethyl-2-oxoindoline-6-carboxamide], the EC50 at WT/R232 STING protein is not above 1 µM; on hSTING (H232) it was not above 1 µM; on hSTING (HAQ) it was not above 1 µM; in the experiment on IRF pathway, 1 to 10 µM; with NF-κB pathway (Homo sapiens, THP1-Dual, 20 h), 1 to 10 µM.
For the compound `Cc1nn(C)c(CN2C(=O)C(C)(C)c3ccc(C(=O)NCc4cc5cc(F)ccc5o4)cc32)c1F` [Example 115, 1-((4-fluoro-1,3-dimethyl-1H-pyrazol-5-yl)methyl)-N-((5-fluorobenzofuran-2-yl)methyl)-3,3-dimethyl-2-oxoindoline-6-carboxamide], the EC50 on WT/R232 STING protein was not above 1 µM; on hSTING (H232), not above 1 µM; at hSTING (HAQ), not above 1 µM; in the experiment on IRF pathway it was 1 to 10 µM; in the experiment on NF-κB pathway (Homo sapiens, THP1-Dual, 20 h) it was 1 to 10 µM.
Consider `CCn1nc(C)cc1CN1C(=O)C(C)(C)c2ccc(C(=O)NCc3cc4cc(F)ccc4o3)cc21` [Example 116, 1-((1-ethyl-3-methyl-1H-pyrazol-5-yl)methyl)-N-((5-fluorobenzofuran-2-yl)methyl)-3,3-dimethyl-2-oxoindoline-6-carboxamide], for which the EC50 on WT/R232 STING protein was not above 1 µM; at hSTING (H232), not above 1 µM; at hSTING (HAQ), not above 1 µM; in the experiment with IRF pathway, 1 to 10 µM; in the experiment on NF-κB pathway (Homo sapiens, THP1-Dual, 20 h), 1 to 10 µM.
For the compound `CCn1nc(C)cc1CN1C(=O)C(C)(C)c2ccc(C(=O)NCc3c(F)cc(F)cc3F)cc21` [Example 117, 1-((1-ethyl-3-methyl-1H-pyrazol-5-yl)methyl)-3,3-dimethyl-2-oxo-N-(2,4,6-trifluorobenzyl)indoline-6-carboxamide], the EC50 on WT/R232 STING protein was not above 1 µM; at hSTING (H232) it was 1 to 10 µM; on hSTING (HAQ), 1 to 10 µM; in the experiment on IRF pathway, 1 to 10 µM; with NF-κB pathway (Homo sapiens, THP1-Dual, 20 h), 1 to 10 µM.
On to `COCCn1nc(C)c(F)c1CN1C(=O)C(C)(C)c2ccc(C(=O)NCc3cc4cc(F)ccc4o3)cc21` [Example 118, 1-((4-fluoro-1-(2-methoxyethyl)-3-methyl-1H-pyrazol-5-yl)methyl)-N-((5-fluorobenzofuran-2-yl)methyl)-3,3-dimethyl-2-oxoindoline-6-carboxamide], for which the EC50 on WT/R232 STING protein was not above 1 µM; on hSTING (H232), 1 to 10 µM; on hSTING (HAQ), 1 to 10 µM; in the experiment on IRF pathway it was more than 10 µM; in the experiment on NF-κB pathway (Homo sapiens, THP1-Dual, 20 h), more than 10 µM.
For `Cc1nn(CCO)c(CN2C(=O)C(C)(C)c3ccc(C(=O)NCc4cc5cc(F)ccc5o4)cc32)c1F` [Example 119, 1-((4-fluoro-1-(2-hydroxyethyl)-3-methyl-1H-pyrazol-5-yl)methyl)-N-((5-fluorobenzofuran-2-yl)methyl)-3,3-dimethyl-2-oxoindoline-6-carboxamide], the EC50 was not above 1 µM on WT/R232 STING protein; 1 to 10 µM on hSTING (H232); 1 to 10 µM at hSTING (HAQ); 1 to 10 µM with IRF pathway; 1 to 10 µM with NF-κB pathway (Homo sapiens, THP1-Dual, 20 h).
`CC1(C)C(=O)N(Cc2ccccc2C#N)c2cc(C(=O)NCc3c(F)cc(F)cc3F)ccc21` [Example 124, 1-(2-cyanobenzyl)-3,3-dimethyl-2-oxo-N-(2,4,6-trifluorobenzyl)indoline-6-carboxamide]: the EC50 at WT/R232 STING protein is not above 1 µM; on hSTING (H232), 1 to 10 µM; at hSTING (HAQ) it was 1 to 10 µM; in the experiment on IRF pathway it was more than 10 µM; in the experiment with NF-κB pathway (Homo sapiens, THP1-Dual, 20 h), more than 10 µM.
With `CC1(C)CN(C(=O)Cc2ccccc2)c2cc(C(=O)NCc3c(F)cc(F)cc3F)ccc21` [Example 136, 3,3-dimethyl-1-(2-phenylacetyl)-N-(2,4,6-trifluorobenzyl)indoline-6-carboxamide], the EC50 at WT/R232 STING protein is 1 to 10 µM; at hSTING (H232), more than 10 µM; on hSTING (HAQ), 1 to 10 µM; in the experiment on IRF pathway, more than 10 µM; with NF-κB pathway (Homo sapiens, THP1-Dual, 20 h) it was more than 10 µM.
`O=C(NCc1c(F)cc(F)cc1F)c1ccc2c(c1)N(Cc1cc(F)cc(F)c1)C(=O)C21CCCC1` [Example 137, 1′(3,5-difluorobenzyl)-2′-oxo-N-(2,4,6-trifluorobenzyl)spiro[cyclopentane-1,3′-indoline]-6′-carboxamide]: the EC50 at WT/R232 STING protein was 1 to 10 µM; at hSTING (H232), 1 to 10 µM; at hSTING (HAQ), 1 to 10 µM; with IRF pathway, more than 10 µM; with NF-κB pathway (Homo sapiens, THP1-Dual, 20 h), more than 10 µM.
As for `CC1(Cl)C(=O)N(Cc2cc(F)cc(F)c2)c2cc(C(=O)NCc3c(F)cc(F)cc3F)ccc21` (centres unmarked) [Example 144, 3-Chloro-1-(3,5-difluorobenzyl)-3-methyl-2-oxo-N-(2,4,6 trifluorobenzyl) indoline-6-carboxamide], the EC50 at WT/R232 STING protein is not above 1 µM; on hSTING (H232), 1 to 10 µM; on hSTING (HAQ), 1 to 10 µM; in the experiment with IRF pathway, more than 10 µM; with NF-κB pathway it was 1 to 10 µM.
